Laboratory results reported in ChEMBL document CHEMBL5614418, “Discovery of novel dihydropyrrolidone-thiadiazole compound crosstalk between the YycG/F two-component regulatory pathway and cell membrane homeostasis to combat methicillin-resistant Staphylococcus aureus” (Eur J Med Chem, 2024).
≈ marks a conversion by molar mass, not a printed value. Calls of active or inactive are those of the source. The rule behind the calls is not given here.

Experiments:
[1] = test system: Staphylococcus epidermidis; assay: Inhibition of bacterial growth in Staphylococcus epidermidis SE1457 at 1/2 MIC concentration measured upto 16 hrs; format: functional, organism-based
[2] = test system: Staphylococcus aureus; assay: Downregulation of pflA expression level in methicillin sensitive Staphylococcus aureus SA113 at 1/2 MIC incubated for 2 hrs by MS/MS analysis; format: functional
[3] = test system: Staphylococcus aureus; assay: Antibacterial activity against methicillin sensitive Staphylococcus aureus SA113 assessed as fold increase in MIC in presence of phosphatidyl glycerol by chequerboard microdilution assay; format: functional
[4] = Toxicity in BALB/c mouse assessed as apparent tissue damage at 50 mg/kg, ip measured after 1 to 3 days; format: organism-based; settings: in vivo, time 1-3 day
[5] = Toxicity in BALB/c mouse assessed as change in AST level at 50 mg/kg, ip measured after 1 to 3 days; format: organism-based; settings: in vivo, time 1-3 day
[6] = test system: Staphylococcus aureus; assay: Antibacterial activity against methicillin sensitive Staphylococcus aureus SA113 in presence of palmitic acid; format: functional, organism-based
[7] = test system: Staphylococcus aureus; assay: Synergistic bactericidal activity against Staphylococcus aureus USA300 assessed as planktonic cells killing by measuring log reduction in bacterial count at 8 times MIC measured after 24 hrs in presence of daptomycin; format: functional
[8] = test system: Enterococcus faecium; assay: Bactericidal activity against Enterococcus faecium EFM64; format: functional
[9] = test system: Staphylococcus aureus; assay: Inhibition of biofilm formation in methicillin resistant Staphylococcus aureus YUSA145 at 1/2 MIC incubated for 16 hrs by SEM analysis; format: functional, organism-based
[10] = test system: Enterococcus faecium; assay: Antibacterial activity against Enterococcus faecium EFM64 by broth microdilution method; format: functional
[11] = test system: Klebsiella pneumoniae; assay: Antibacterial activity against Klebsiella pneumoniae; format: functional, organism-based
[12] = test system: Staphylococcus aureus; assay: Antibacterial activity against methicillin resistant Staphylococcus aureus YUSA145; format: functional
[13] = test system: Staphylococcus epidermidis; assay: Antibacterial activity against Staphylococcus epidermidis SE1457 by broth microdilution method; format: functional
[14] = test system: Staphylococcus aureus; assay: Inhibition of bacterial growth in methicillin sensitive Staphylococcus aureus SA113 at 1/2 MIC concentration measured upto 16 hrs; format: functional, organism-based
[15] = test system: Staphylococcus aureus; assay: Downregulation of pflB gene expression level in methicillin sensitive Staphylococcus aureus SA113 at 1/2 MIC by RT-qPCR analysis; format: functional
[16] = test system: Staphylococcus aureus; assay: Synergistic antibacterial activity against methicillin resistant Staphylococcus aureus USA300 in presence of vancomycin; format: functional, organism-based
[17] = test system: Staphylococcus aureus; assay: Induction of matured biofilm eradication in methicillin resistant Staphylococcus aureus YUSA145 assessed as log reduction in bacterial count in biofilm at 8 MIC incubated for 48 hrs in presence of daptomycin by agar plate method; format: functional
[18] = test system: Staphylococcus aureus; assay: Induction of matured biofilm eradication in methicillin resistant Staphylococcus aureus YUSA145 assessed as reduction in bacterial survival in biofilm at 8 times MIC incubated for 48 hrs in presence of daptomycin by SYTO 9 staining based confocal fluorescence microscopic analysis; format: functional
[19] = test system: Staphylococcus aureus; assay: Synergistic antibacterial activity against methicillin resistant Staphylococcus aureus USA300 in presence of linezolid; format: functional, organism-based
[20] = test system: Staphylococcus aureus; assay: Antibacterial activity against methicillin sensitive Staphylococcus aureus SA113 assessed as fold increase in MIC in presence of cardiolipin by chequerboard microdilution assay; format: functional
[21] = test system: Staphylococcus epidermidis; assay: Synergistic antibacterial activity against Staphylococcus epidermidis SE1457 assessed as fold increase in MIC in presence of daptomycin; format: functional
[22] = test system: Staphylococcus epidermidis; assay: Inhibition of biofilm formation in Staphylococcus epidermidis SE1457 at 1/2 MIC incubated for 16 hrs by SEM analysis; format: functional, organism-based
[23] = test system: Staphylococcus aureus; assay: Downregulation of arcC1 expression level in methicillin sensitive Staphylococcus aureus SA113 at 1/2 MIC incubated for 2 hrs by MS/MS analysis; format: functional
[24] = test system: Staphylococcus aureus; assay: Induction of resistance development in methicillin sensitive Staphylococcus aureus SA113 assessed as fold increase in MIC at 1/2 MIC incubated for 16 hrs after 20 serial passages; format: functional
[25] = Hemolytic activity against human erythrocytes measured after 1 hr; format: toxicity, cell-based, Erythrocyte
[26] = molecular target: T1, Sensor protein kinase WalK (Staphylococcus aureus, UniProt Q9RDT3); assay: Inhibition of Staphylococcus aureus YycG expressed in Escherichia coli preincubated for 30 mins followed by ATP addition and measured after 30 mins by kinase-Glo luminescent assay
T1 sequence (Q9RDT3 whole entry): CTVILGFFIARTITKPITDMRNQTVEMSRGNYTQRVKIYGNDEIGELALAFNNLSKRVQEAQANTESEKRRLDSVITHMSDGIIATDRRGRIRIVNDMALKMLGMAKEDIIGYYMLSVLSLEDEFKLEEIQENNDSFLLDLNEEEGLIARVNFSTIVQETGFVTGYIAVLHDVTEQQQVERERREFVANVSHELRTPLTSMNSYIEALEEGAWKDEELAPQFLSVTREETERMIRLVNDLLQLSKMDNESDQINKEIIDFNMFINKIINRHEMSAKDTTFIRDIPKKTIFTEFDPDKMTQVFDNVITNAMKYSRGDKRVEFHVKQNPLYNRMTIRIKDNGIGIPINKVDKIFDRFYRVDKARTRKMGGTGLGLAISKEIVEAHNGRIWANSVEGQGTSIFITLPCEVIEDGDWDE

[27] = test system: Staphylococcus epidermidis; assay: Synergistic bactericidal activity against Staphylococcus epidermidis SE1457 assessed as persister cells killing by measuring log reduction in bacterial count at 8 times MIC measured after 72 hrs in presence of daptomycin; format: functional
[28] = test system: Staphylococcus aureus; assay: Antibacterial activity against methicillin resistant Staphylococcus aureus YUSA151; format: functional
[29] = test system: Cell membrane; assay: Induction of cell membrane disruption in methicillin sensitive Staphylococcus aureus SA113 at 4 times MIC incubated for 2 hrs by TEM analysis; format: cell membranes
[30] = test system: Staphylococcus aureus; assay: Antibacterial activity against methicillin sensitive Staphylococcus aureus SA113 assessed as reduction in membrane fluidity at 1 to 4 times MIC incubated for 30 mins by fluorescence based assay; format: functional, organism-based
[31] = test system: Staphylococcus epidermidis; assay: Induction of matured biofilm eradication in Staphylococcus epidermidis SE1457 assessed as log reduction in bacterial count in biofilm at 8 times MIC incubated for 48 hrs in presence of daptomycin by agar plate method; format: functional
[32] = test system: Staphylococcus aureus; assay: Synergistic bactericidal activity against Staphylococcus aureus USA300 assessed as persister cells killing by measuring log reduction in bacterial count at 8 times MIC measured after 72 hrs in presence of daptomycin; format: functional
[33] = test system: Staphylococcus epidermidis; assay: Bactericidal activity against Staphylococcus epidermidis SE1457 assessed as planktonic cells killing by measuring log reduction in bacterial count at 2 to 8 times MIC measured after 24 hrs; format: functional
[34] = test system: Staphylococcus aureus; assay: Inhibition of bacterial growth in methicillin sensitive Staphylococcus aureus SA113 at MIC concentration measured upto 16 hrs; format: functional
[35] = test system: Staphylococcus epidermidis; assay: Induction of matured biofilm eradication in Staphylococcus epidermidis SE1457 assessed as reduction in bacterial survival in biofilm at 8 times MIC incubated for 48 hrs in presence of daptomycin by SYTO 9 staining based confocal fluorescence microscopic analysis; format: functional
[36] = test system: Staphylococcus aureus; assay: Inhibition of bacterial growth in methicillin resistant Staphylococcus aureus USA300 at MIC concentration measured upto 16 hrs; format: functional
[37] = Toxicity in BALB/c mouse assessed as change in K+ level at 50 mg/kg, ip measured after 1 to 3 days; format: organism-based; settings: in vivo, time 1-3 day
[38] = test system: Staphylococcus aureus; assay: Antibacterial activity against methicillin sensitive Staphylococcus aureus SA113 assessed as fold increase in MIC in presence of phosphatidylcholine by chequerboard microdilution assay; format: functional

Compound: O=C(C1=C(O)C(=O)N(c2nnc(SCc3ccccc3Cl)s2)C1c1ccccc1O)c1cc2ccccc2o1 (stereo not given)
- growth inhibition (GI) [1]: Active
- Activity [2]: Active
- fold change (FC) [3]: 16
- Activity [4]: Non-Toxic
- Activity [5]: Non-Toxic
- Activity [6]: inactive
- log(activity) [7]: 4.5
- MBC [8]: 100 µM (≈ 57.6 µg/mL)
- inhibition [9]: Active
- MIC50 [10]: ≥ 50 µM
- MIC90 [10]: ≥ 50 µM
- Activity [11]: Active
- MIC [12]: 12.5 µM (≈ 7.2 µg/mL)
- MIC50 [13]: ≥ 50 µM
- MIC90 [13]: ≥ 50 µM
- growth inhibition (GI) [14]: Active
- Activity [15]: Active
- Activity [16]: inactive
- log(activity) [17]: 3
- Activity [18]: >70%
- Activity [19]: inactive
- fold change (FC) [20]: 16
- fold change (FC) [21]: 2
- inhibition [22]: Active
- Activity [23]: Active
- Activity [24]: inactive
- HC50 at 1 h [25]: > 200 µM
- IC50 [26]: 19.5 µM
- log(activity) [27]: 3
- MIC [28]: 12.5 µM (≈ 7.2 µg/mL)
- Activity [29]: Active
- Activity [30]: Active
- log(activity) [31]: 3
- log(activity) [32]: 3
- log(activity) [33]: 2.7
- inhibition (INH) [34]: 100%
- Activity [35]: >70%
- inhibition (INH) [36]: 100%
- Activity [37]: Non-Toxic
- fold change (FC) [38]: 16
